From PMC9847078, “On the plasticity of amyloid formation: The impact of destabilizing small to large substitutions on islet amyloid polypeptide amyloid formation” (Protein Science : A Publication of the Protein Society, 2023)

Experiment: Peptide solubility measurement (micro‐BCA after centrifugation)
Type: physicochemical
Conditions: 200 μM peptide in 10 mM PBS (140 mM KCl), centrifuged 18,000 g 30 min, supernatant by micro‐BCA
Experimental: Dry peptides were dissolved in HFIP to prepare the stock solutions. The concentrations of the stock solutions were measured by using freeze dried aliquots of the stock solutions with the micro‐BCA assay. Based on the stock solution concentrations, aliquots were prepared and lyophilized. The dry peptides were reconstructed in 10 mM phosphate buffer saline (140 mM KCl), pH 7.4 at a final peptide concentration of 200 μM. Immediately after reconstitution 10 μl of the sample was removed and the soluble peptide concentration was measured using the micro‐BCA assay. […] After 5 days, a 450 μl portion from each sample were removed and centrifuged at 18,000 g for 30 min (25°C). A 100 μl portion of the centrifuged supernatant was subjected to the micro‐BCA assay to calculate the amount of soluble peptide left after 5 days.

| SMILES | Apparent solubility compared to wild type hIAPP (pH 7.4, 25°C, 5 days, differences not significant (p > 0.05)) | Apparent solubility: amount of peptide remaining in the solution (pH 7.4, stood 7 days at room temperature) |
| --- | --- | --- |
| CC[C@H](C)[C@H](NC(=O)[C@H](C)NC(=O)[C@H](CC(C)C)NC(=O)[C@H](Cc1ccccc1)NC(=O)[C@H](CC(N)=O)NC(=O)[C@H](CC(N)=O)NC(=O)[C@H](CO)NC(=O)[C@H](CO)NC(=O)[C@H](Cc1c[nH]cn1)NC(=O)[C@@H](NC(=O)[C@H](CC(C)C)NC(=O)[C@H](Cc1ccccc1)NC(=O)[C@H](CC(N)=O)NC(=O)[C@H](C)NC(=O)[C@H](CC(C)C)NC(=O)[C@H](CCCNC(=N)N)NC(=O)[C@H](CCC(N)=O)NC(=O)[C@@H](NC(=O)[C@H](C)NC(=O)[C@@H]1CSSC[C@H](NC(=O)[C@@H](N)CCCCN)C(=O)N[C@@H](CC(N)=O)C(=O)N[C@@H]([C@@H](C)O)C(=O)N[C@@H](C)C(=O)N[C@@H]([C@@H](C)O)C(=O)N1)[C@@H](C)O)C(C)C)C(=O)N[C@@H](CC(C)C)C(=O)N[C@@H](CO)C(=O)N[C@@H](CO)C(=O)N[C@H](C(=O)N[C@@H](CC(N)=O)C(=O)N[C@H](C(=O)NCC(=O)N[C@@H](CO)C(=O)N[C@@H](CC(N)=O)C(=O)N[C@H](C(=O)N[C@@H](Cc1ccc(O)cc1)C(N)=O)[C@@H](C)O)C(C)C)[C@@H](C)O [G24L‐hIAPP] | Slightly higher concentrations | – |
| CC[C@H](C)[C@H](NC(=O)[C@H](C)NC(=O)[C@@H]1CCCN1C(=O)[C@H](Cc1ccccc1)NC(=O)[C@H](CC(N)=O)NC(=O)[C@H](CC(N)=O)NC(=O)[C@H](CO)NC(=O)[C@H](CO)NC(=O)[C@H](Cc1c[nH]cn1)NC(=O)[C@@H](NC(=O)[C@H](CC(C)C)NC(=O)[C@H](Cc1ccccc1)NC(=O)[C@H](CC(N)=O)NC(=O)[C@H](C)NC(=O)[C@H](CC(C)C)NC(=O)[C@H](CCCNC(=N)N)NC(=O)[C@H](CCC(N)=O)NC(=O)[C@@H](NC(=O)[C@H](C)NC(=O)[C@@H]1CSSC[C@H](NC(=O)[C@@H](N)CCCCN)C(=O)N[C@@H](CC(N)=O)C(=O)N[C@@H]([C@@H](C)O)C(=O)N[C@@H](C)C(=O)N[C@@H]([C@@H](C)O)C(=O)N1)[C@@H](C)O)C(C)C)C(=O)N[C@@H](CC(C)C)C(=O)N[C@@H](CO)C(=O)N[C@@H](CO)C(=O)N[C@H](C(=O)N[C@@H](CC(N)=O)C(=O)N[C@H](C(=O)NCC(=O)N[C@@H](CO)C(=O)N[C@@H](CC(N)=O)C(=O)N[C@H](C(=O)N[C@@H](Cc1ccc(O)cc1)C(N)=O)[C@@H](C)O)C(C)C)[C@@H](C)O [G24P‐hIAPP] | – | greater than 50 μM |
